According to patent US4670038A, “Cyclotriphosphazatriene-derivatives as soil urease activity inhibitors” (Tennessee Valley Authority, priority 1986, dated 1987):
Entries after “also recorded” stand apart in the source; their conditions may differ. Where two headings read alike, the source gives them in different places.

Legend:
[1] = cited from earlier work
soil urease [2] = assay: Urea hydrolysis in bands of urea plus inhibitor in Hastings silt loam soil (banded system); assay type: biochemical; details: for Unhydrolyzed Urea, % Banded 3-Day / Unhydrolyzed Urea, % Banded 6-Day: Table VI, 41 mg inhibitor/band; for Unhydrolyzed Urea, % 3 Days / Unhydrolyzed Urea, % Banded 3-Day: 3 days; for Unhydrolyzed Urea, % 6 Days / Unhydrolyzed Urea, % Banded 6-Day: 6 days
soil urease [3] = assay: Urea remaining unhydrolyzed in Hastings silt loam soil, well-mixed system; assay type: biochemical; details: for Soil urease inhibitory properties in words, well-mixed system: 1-, 3- and 6-day tests, compared with phenyl phosphorodiamidate; for Unhydrolyzed Urea, % Well-Mixed 1-Day / Unhydrolyzed Urea, % Well-Mixed 3-Day / Unhydrolyzed Urea, % Well-Mixed 6-Day: Table V, 41 mg inhibitor, 410 mg urea, 100 g soil, three replications, 25° C.; for Unhydrolyzed Urea, % Well-Mixed 3-Day: 3 days; for Unhydrolyzed Urea, % Well-Mixed 6-Day: 6 days; for Time until percentage urease inhibition reaches 0% (FIG. 1): FIG. 1, plotted and extrapolated from data of Table V, conventional test
[4] = soil, 168 h; cited from earlier work
soil urease [5] = assay: Soil urease inhibition in Crowley silt loam soil, extended time evaluation system (urea added at selected intervals); assay type: biochemical; details: for Soil Urease Inhibition, 0 Days / Soil Urease Inhibition, 3 Days / Soil Urease Inhibition, 7 Days / Soil Urease Inhibition, 14 Days / Soil Urease Inhibition, 21 Days: 7 micromoles compound per 120 g Crowley silt loam, reincubated 16 hours; for Soil Urease Inhibition, 0 Days: urea added after 0 days; for Soil Urease Inhibition, 3 Days: urea added after 3 days; for Soil Urease Inhibition, 7 Days: urea added after 7 days; for Soil Urease Inhibition, 14 Days: urea added after 14 days; for Soil Urease Inhibition, 21 Days: urea added after 21 days
[6] = Hastings silt loam, banded system, 3-day and 6-day tests
[7] = Table II, equimolar basis, 0.25 millimoles inhibitor/band, 410 mg urea/band, three replications, Hastings silt loam, 25° C.
[8] = Table III, inhibitor 10 percent of urea (wt/wt), 41 mg/band, four replications, Hastings silt loam, 25° C.
[9] = Table IV, inhibitor 10 percent of urea (wt/wt), 41 mg/band, two replications, Hastings silt loam
[10] = 410 mg urea/band, three replications, Hastings silt loam, 25° C.

NP1(N)=NP(N)(N)=NP(N)(N)=N1 [P3 N3 (NH2)6, 2,2,4,4,6,6-hexaaminocyclotriphosphazatriene]
Time of hydrolysis ([1]; pH 8, 15° C.): about 300 hours | Time of hydrolysis ([1]; pH 8, 30° C.): ~100 h | Soil urease inhibition in words, banded soil tests (soil urease [2]; [6]): comparable to PPDA as an inhibitor of soil urease activity; also recorded: inhibit soil urease during the 3-day and 6-day tests | Unhydrolyzed Urea, % 3 Days (soil urease [2]; [7]): 48.1% | Unhydrolyzed Urea, % 6 Days (soil urease [2]; [7]): 16.8% | Unhydrolyzed Urea, % 3 Days (soil urease [2]; [8]): 49.7% | Unhydrolyzed Urea, % 6 Days (soil urease [2]; [8]): 9.5% | Unhydrolyzed Urea, % 3 Days (soil urease [2]; [9]): 53.8% | Unhydrolyzed Urea, % 6 Days (soil urease [2]; [9]): 9.5% | Unhydrolyzed Urea, % Banded 3-Day (soil urease [2]; [10]): 64% | Unhydrolyzed Urea, % Banded 6-Day (soil urease [2]; [10]): 8% | Soil urease inhibitory properties in words, well-mixed system (soil urease [3]): less than that of phenyl phosphorodiamidate | Unhydrolyzed Urea, % Well-Mixed 1-Day (soil urease [3]): 86% | Unhydrolyzed Urea, % Well-Mixed 3-Day (soil urease [3]): 57% | Unhydrolyzed Urea, % Well-Mixed 6-Day (soil urease [3]): 9% | Percent hydrolyzed in 7 days [4]: 6-13% | Soil Urease Inhibition, 0 Days (soil urease [5]; 30° C.): 46% | Soil Urease Inhibition, 3 Days (soil urease [5]; 30° C.): 23% | Soil Urease Inhibition, 7 Days (soil urease [5]; 30° C.): 20% | Soil Urease Inhibition, 14 Days (soil urease [5]; 30° C.): 4% | Soil Urease Inhibition, 21 Days (soil urease [5]; 30° C.): 4% | Soil Urease Inhibition, 21 Days (soil urease [5]; 30° C., listed as hexaaminocyclotriphosphazatriene): about 4% | Urease inhibition compared with reference standard PPDA, in words (FIG. 2) (soil urease [5]; time independent modified soil evaluation procedure, 21-day test period): as good or better than PPDA for the time period from 14 to 21 days

NP(N)(N)=O [PO(NH2)3, Phosphoryltriamide, reference compound]
Unhydrolyzed Urea, % 3 Days (soil urease [2]; [7]): 43.4% | Unhydrolyzed Urea, % 6 Days (soil urease [2]; [7]): 1.8% | Unhydrolyzed Urea, % 3 Days (soil urease [2]; [8]): 48.1% | Unhydrolyzed Urea, % 6 Days (soil urease [2]; [8]): 1.1% | Unhydrolyzed Urea, % 3 Days (soil urease [2]; [9]): 54.2% | Unhydrolyzed Urea, % 6 Days (soil urease [2]; [9]): 2.6% | Soil Urease Inhibition, 0 Days (soil urease [5]; 30° C.): 29% | Soil Urease Inhibition, 3 Days (soil urease [5]; 30° C.): 4% | Soil Urease Inhibition, 7 Days (soil urease [5]; 30° C.): 12% | Soil Urease Inhibition, 14 Days (soil urease [5]; 30° C.): 0% | Soil Urease Inhibition, 21 Days (soil urease [5]; 30° C.): 0%

CN(C)P1(N(C)C)=NP(N(C)C)(N(C)C)=NP(N(C)C)(N(C)C)=N1 [P3 N3 [N(CH3)2]6, 2,2,4,4,6,6-hexa(dimethylamino)cyclotriphosphazatriene]
Soil urease inhibition in words, banded soil tests (soil urease [2]; [6]): do not exhibit urease inhibition | Unhydrolyzed Urea, % 3 Days (soil urease [2]; [9]): 0.0% | Unhydrolyzed Urea, % 6 Days (soil urease [2]; [9]): 0.0%

NP1(Oc2ccccc2)=NP(N)(Oc2ccccc2)=NP(N)(Oc2ccccc2)=N1 (centres unmarked) [P3 N3 (NH2)3 (OC6 H5)3, 2,4,6-triphenoxy-2,4,6-triaminocyclotriphosphazatriene]
Unhydrolyzed Urea, % Banded 3-Day (soil urease [2]; [10]): 21% | Unhydrolyzed Urea, % Banded 6-Day (soil urease [2]; [10]): 0% | Soil urease inhibitory properties in words, well-mixed system (soil urease [3]): less than that of phenyl phosphorodiamidate | Unhydrolyzed Urea, % Well-Mixed 1-Day (soil urease [3]): 82% | Unhydrolyzed Urea, % Well-Mixed 3-Day (soil urease [3]): 37% | Unhydrolyzed Urea, % Well-Mixed 6-Day (soil urease [3]): 0% | Soil Urease Inhibition, 0 Days (soil urease [5]; 30° C.): 22% | Soil Urease Inhibition, 3 Days (soil urease [5]; 30° C.): 79% | Soil Urease Inhibition, 7 Days (soil urease [5]; 30° C.): 74% | Soil Urease Inhibition, 14 Days (soil urease [5]; 30° C.): 84% | Soil Urease Inhibition, 21 Days (soil urease [5]; 30° C.): 82% | Urease inhibition sustained during the period from 7 to 21 days (FIG. 2) (soil urease [5]; Crowley silt loam, 30° C., period from 7 to 21 days): greater than 80%

ClP1(Oc2ccccc2)=NP(Cl)(Oc2ccccc2)=NP(Cl)(Oc2ccccc2)=N1 (centres unmarked) [P3 N3 (Cl)3 (OC6 H5)3, 2,4,6-triphenoxy-2,4,6-trichlorocyclotriphosphazatriene]
Soil urease inhibition in words, banded soil tests (soil urease [2]): not effective urease inhibitors

CC(=O)NO [CH3 C(NOH)(OH), Acetohydroxamic acid, reference compound]
Unhydrolyzed Urea, % 3 Days (soil urease [2]; [7]): 26.2% | Unhydrolyzed Urea, % 6 Days (soil urease [2]; [7]): 6.7%

CNP1(NC)=NP(N)(N)=NP(NC)(NC)=N1 [P3 N3 (NH2)2 (NHCH3)4, 2,2,4,4,-tetra(monomethylamino)-6,6-diaminocyclotriphosphazatriene]
Unhydrolyzed Urea, % 3 Days (soil urease [2]; [9]): 0.5% | Unhydrolyzed Urea, % 6 Days (soil urease [2]; [9]): 0.0%

CNP1(NC)=NP(NC)(NC)=NP(NC)(NC)=N1 [P3 N3 (NHCH3)6, 2,2,4,4,6,6-hexa(monomethylamino)cyclotriphosphazatriene]
Soil urease inhibition in words, banded soil tests (soil urease [2]; [6]): do not exhibit urease inhibition | Unhydrolyzed Urea, % 3 Days (soil urease [2]; [9]): 0.0% | Unhydrolyzed Urea, % 6 Days (soil urease [2]; [9]): 0.0%

CN(C)P1(N(C)C)=NP(N)(N)=NP(N(C)C)(N(C)C)=N1 [P3 N3 (NH2)2 [N(CH3)2]4, 2,2,4,4,-tetra(dimethylamino)-6,6-diaminocyclotriphosphazatriene]
Soil urease inhibition in words, banded soil tests (soil urease [2]; [6]): do not exhibit urease inhibition

NP1(N)=NP(N)(Oc2ccccc2)=NP(N)(Oc2ccccc2)=N1 (centres unmarked) [P3 N3 (NH2)4 (OC6 H5)2, 2,4-diphenoxy-2,4,6,6-tetraaminocyclotriphosphazatriene]
Soil urease inhibition in words, banded soil tests (soil urease [2]; [6]): inhibit soil urease during the 3-day and 6-day tests | Unhydrolyzed Urea, % Banded 3-Day (soil urease [2]; [10]): 60% | Unhydrolyzed Urea, % Banded 6-Day (soil urease [2]; [10]): 4% | Soil urease inhibitory properties in words, well-mixed system (soil urease [3]): comparable to phenyl phosphorodiamidate | Time until percentage urease inhibition reaches 0% (FIG. 1) (soil urease [3]): about 10 days | Unhydrolyzed Urea, % Well-Mixed 1-Day (soil urease [3]): 94% | Unhydrolyzed Urea, % Well-Mixed 3-Day (soil urease [3]): 74% | Unhydrolyzed Urea, % Well-Mixed 6-Day (soil urease [3]): 36% | Soil Urease Inhibition, 0 Days (soil urease [5]; 30° C.): 75% | Soil Urease Inhibition, 3 Days (soil urease [5]; 30° C.): 94% | Soil Urease Inhibition, 7 Days (soil urease [5]; 30° C.): 71% | Soil Urease Inhibition, 14 Days (soil urease [5]; 30° C.): 69% | Soil Urease Inhibition, 21 Days (soil urease [5]; 30° C.): 65%

NP1(N)=NP(N)(N)=NP(N)(Oc2ccccc2)=N1 (centres unmarked) [P3 N3 (NH2)5 (OC6 H5), 2-phenoxy-2,4,4,6,6-pentaaminocyclotriphosphazatriene]
Soil urease inhibition in words, banded soil tests (soil urease [2]; [6]): inhibit soil urease during the 3-day and 6-day tests | Unhydrolyzed Urea, % Banded 3-Day (soil urease [2]; [10]): 61% | Unhydrolyzed Urea, % Banded 6-Day (soil urease [2]; [10]): 7% | Soil urease inhibitory properties in words, well-mixed system (soil urease [3]): comparable to phenyl phosphorodiamidate | Time until percentage urease inhibition reaches 0% (FIG. 1) (soil urease [3]): about 10 days | Unhydrolyzed Urea, % Well-Mixed 1-Day (soil urease [3]): 96% | Unhydrolyzed Urea, % Well-Mixed 3-Day (soil urease [3]): 82% | Unhydrolyzed Urea, % Well-Mixed 6-Day (soil urease [3]): 44% | Soil Urease Inhibition, 0 Days (soil urease [5]; 30° C.): 95% | Soil Urease Inhibition, 3 Days (soil urease [5]; 30° C.): 75% | Soil Urease Inhibition, 7 Days (soil urease [5]; 30° C.): 49% | Soil Urease Inhibition, 14 Days (soil urease [5]; 30° C.): 42% | Soil Urease Inhibition, 21 Days (soil urease [5]; 30° C.): 44%

NC(=O)NO [CO(NH2)(NHOH), Hydroxyurea, reference compound]
Unhydrolyzed Urea, % 3 Days (soil urease [2]; [7]): 20.3% | Unhydrolyzed Urea, % 6 Days (soil urease [2]; [7]): 0.2%
